Experimental data reported in ChEMBL document CHEMBL1136598, “Design, synthesis, and structure-activity relationships of unsubstituted piperazinone-based transition state factor Xa inhibitors” (Bioorg Med Chem Lett, 2003).
One block for each molecule: values may come before it. The source made the active and inactive calls. The rule behind the calls is not given here.

How the values were obtained:
Prothrombin = Prothrombin (Homo sapiens, UniProt P00734); assay: In vitro inhibitory activity against serine protease thrombin
Coagulation factor X [1] = target: T1, Coagulation factor X (Homo sapiens, UniProt P00742); assay: In vitro inhibitory activity against factor Xa
T1 sequence (P00742 41-179 limits assumed): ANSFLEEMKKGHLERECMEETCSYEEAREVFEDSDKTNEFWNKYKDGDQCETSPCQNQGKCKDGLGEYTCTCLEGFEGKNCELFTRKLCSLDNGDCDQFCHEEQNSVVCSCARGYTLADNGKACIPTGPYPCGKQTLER
T1 sequence (P00742 235-488 limits assumed): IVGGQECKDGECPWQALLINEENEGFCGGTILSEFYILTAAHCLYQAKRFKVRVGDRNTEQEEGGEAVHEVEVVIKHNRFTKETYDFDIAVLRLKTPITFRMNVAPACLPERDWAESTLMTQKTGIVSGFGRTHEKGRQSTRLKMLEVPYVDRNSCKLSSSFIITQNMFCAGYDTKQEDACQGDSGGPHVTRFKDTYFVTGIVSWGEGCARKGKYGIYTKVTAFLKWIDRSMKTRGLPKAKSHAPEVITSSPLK

[2] = target: Vitamin K-dependent protein C (Homo sapiens, UniProt P04070); assay: Inhibitory activity against activated protein C (aPC)
Vitamin K-dependent protein C, sequence (P04070 43-197 limits assumed): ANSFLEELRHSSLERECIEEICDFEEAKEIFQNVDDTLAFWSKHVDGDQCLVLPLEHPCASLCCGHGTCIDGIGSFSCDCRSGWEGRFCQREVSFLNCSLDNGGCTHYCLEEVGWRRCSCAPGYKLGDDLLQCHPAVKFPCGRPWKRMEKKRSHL
Vitamin K-dependent protein C, sequence (P04070 212-461 limits assumed): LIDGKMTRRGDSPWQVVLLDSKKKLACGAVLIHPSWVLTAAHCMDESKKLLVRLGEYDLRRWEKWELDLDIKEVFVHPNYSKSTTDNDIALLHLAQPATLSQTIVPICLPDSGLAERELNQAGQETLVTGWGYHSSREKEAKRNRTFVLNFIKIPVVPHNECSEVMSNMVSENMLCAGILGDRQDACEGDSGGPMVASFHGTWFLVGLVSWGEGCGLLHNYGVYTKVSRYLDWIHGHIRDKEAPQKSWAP

[3] = Half life period after intravenous administration in rat; type: ADME, organism-based; settings: in vivo
Oryctolagus cuniculus [4] = species on record: Oryctolagus cuniculus; assay: Plasma concentration required to inhibit thrombosis formation in rabbit; type: functional, organism-based
Coagulation factor X [5] = target: T1, Coagulation factor X; assay: (§1) In vitro binding affinity towards factor Xa
Oryctolagus cuniculus [6] = species on record: Oryctolagus cuniculus; assay: Inhibition thrombosis formation in rabbit; type: functional
[7] = Inhibitory activity against Kallikrein
[8] = In vitro anticoagulant activity was measured by activated partial thromboplastin time (APTT) assay; type: functional
[9] = In vitro anticoagulant activity was measured by prothrombin time (PT) assay; type: functional
[10] = In vitro anticoagulant activity was measured by plasma based on thrombin generation (TG) assay; type: functional
[11] = target: Tissue-type plasminogen activator (Homo sapiens, UniProt P00750); assay: Inhibitory activity against tissue plasminogen activator (tissue plasminogen activator)
Tissue-type plasminogen activator, sequence (P00750 whole entry): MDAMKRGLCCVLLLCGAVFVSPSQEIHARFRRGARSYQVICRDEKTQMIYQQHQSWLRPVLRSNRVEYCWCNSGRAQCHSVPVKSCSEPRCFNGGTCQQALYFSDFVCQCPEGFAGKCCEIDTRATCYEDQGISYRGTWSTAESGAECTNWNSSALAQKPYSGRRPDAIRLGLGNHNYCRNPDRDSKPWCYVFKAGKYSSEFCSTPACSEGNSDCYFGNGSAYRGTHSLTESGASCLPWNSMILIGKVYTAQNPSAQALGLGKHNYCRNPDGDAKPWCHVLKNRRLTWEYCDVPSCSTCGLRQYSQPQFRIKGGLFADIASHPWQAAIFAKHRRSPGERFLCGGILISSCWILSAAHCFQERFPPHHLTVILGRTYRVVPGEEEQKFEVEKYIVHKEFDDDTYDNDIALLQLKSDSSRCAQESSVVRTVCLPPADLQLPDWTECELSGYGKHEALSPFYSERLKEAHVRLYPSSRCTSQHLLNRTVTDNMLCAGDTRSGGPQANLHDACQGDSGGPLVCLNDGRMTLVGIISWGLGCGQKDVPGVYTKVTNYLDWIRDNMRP

Plasminogen = Plasminogen (Homo sapiens, UniProt P00747); assay: Inhibitory activity against Plasmin
Plasminogen, sequence (P00747 97-580 limits assumed): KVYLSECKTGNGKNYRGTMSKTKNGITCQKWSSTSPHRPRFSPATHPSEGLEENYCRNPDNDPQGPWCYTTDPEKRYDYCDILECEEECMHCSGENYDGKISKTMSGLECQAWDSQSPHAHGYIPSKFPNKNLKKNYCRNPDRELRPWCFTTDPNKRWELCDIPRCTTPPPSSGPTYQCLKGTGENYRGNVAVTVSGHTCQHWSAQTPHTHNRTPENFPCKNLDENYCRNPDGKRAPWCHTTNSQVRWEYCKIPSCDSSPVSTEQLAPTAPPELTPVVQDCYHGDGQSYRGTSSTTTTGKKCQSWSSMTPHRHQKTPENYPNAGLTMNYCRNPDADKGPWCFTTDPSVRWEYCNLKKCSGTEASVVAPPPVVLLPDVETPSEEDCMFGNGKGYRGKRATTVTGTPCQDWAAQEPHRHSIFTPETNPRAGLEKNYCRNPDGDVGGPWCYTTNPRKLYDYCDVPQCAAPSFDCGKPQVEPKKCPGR
Plasminogen, sequence (P00747 581-810 limits assumed): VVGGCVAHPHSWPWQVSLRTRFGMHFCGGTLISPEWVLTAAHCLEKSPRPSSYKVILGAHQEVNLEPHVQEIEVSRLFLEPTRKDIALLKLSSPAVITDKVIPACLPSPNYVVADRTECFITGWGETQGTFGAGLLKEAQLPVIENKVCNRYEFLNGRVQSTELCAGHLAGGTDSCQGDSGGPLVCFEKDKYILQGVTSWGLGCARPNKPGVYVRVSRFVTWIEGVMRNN

Serine protease 1 = Serine protease 1 (Homo sapiens, UniProt P07477); assay: Inhibitory activity against Trypsin
Serine protease 1, sequence (P07477 whole entry): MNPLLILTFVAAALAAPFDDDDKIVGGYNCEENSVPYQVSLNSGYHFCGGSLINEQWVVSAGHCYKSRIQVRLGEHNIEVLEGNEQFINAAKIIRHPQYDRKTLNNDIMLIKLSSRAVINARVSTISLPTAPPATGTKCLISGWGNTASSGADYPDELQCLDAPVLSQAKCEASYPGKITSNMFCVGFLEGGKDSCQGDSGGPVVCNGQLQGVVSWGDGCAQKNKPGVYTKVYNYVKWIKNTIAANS

Coagulation factor X [12] = target: T1, Coagulation factor X; assay: In vitro binding affinity towards factor Xa; Not active
[13] = In vivo half life period after intravenous administration in rat; type: ADME, organism-based
Oryctolagus cuniculus [14] = assay: In vivo plasma concentration required to inhibit thrombosis formation in rabbit; type: functional, organism-based
Oryctolagus cuniculus [15] = assay: In vivo inhibition thrombosis formation in rabbit; type: functional
Coagulation factor X [16] = target: T1, Coagulation factor X; assay: as §1; remark: listed apart in the source
Oryctolagus cuniculus [17] = assay: In vivo inhibition of thrombosis formation in rabbit; type: functional
[18] = In vitro anticoagulant activity was measured by plasma based thrombin generation (TG) assay; type: functional

SMILES: N=C(N)NCCC[C@@H](NC(=O)CNC(=O)[C@H](Cc1c[nH]c2ccccc12)NS(=O)(=O)Cc1ccccc1)C(=O)c1nccs1
IC50 (Prothrombin): 870 nM | IC50 (Coagulation factor X [1]): 2 nM

SMILES: N=C(N)NCCC[C@@H](NC(=O)CN1CCN(S(=O)(=O)Cc2ccccc2)CC1)C(=O)c1nccs1
IC50 (Prothrombin): > 500000 nM | IC50 (Coagulation factor X [1]): 24000 nM

SMILES: CC(=O)Nc1nc(C)c(S(=O)(=O)N2CCN(CC(=O)NC(CCCN=C(N)N)C(=O)c3nccs3)C(=O)C2)s1 (centres undefined)
IC50 (Prothrombin): 4000 nM | IC50 (Coagulation factor X [1]): 58 nM

SMILES: N=C(N)NCCCC(NC(=O)CN1CCN(S(=O)(=O)c2ccc3c(Cl)cccc3c2)CC1=O)C(=O)c1nccs1 (centres undefined)
IC50 [2]: 170000 nM | half-life [3]: 51 min | Plasma concentration (Oryctolagus cuniculus [4]): 0.2 µM | Ki (Coagulation factor X [5]): 1.3 nM | Inhibition (Oryctolagus cuniculus [6]): 0% | IC50 [7]: 34 nM | 2x APTT [8]: 12.5 µM | IC50 (Prothrombin): 2000 nM | IC50 (Coagulation factor X [1]): 0.79 nM | 2x PT [9]: 12.5 µM | 2x TG [10]: inactive | IC50 [11]: 740 nM | IC50 (Plasminogen): 1880 nM | IC50 (Serine protease 1): 20.5 nM | k_off (Coagulation factor X [12]): inactive | k_on (Coagulation factor X [12]): inactive

SMILES: N=C(N)NCCC[C@@H](NC(=O)CN1CCN(C(=O)c2ccc(Cl)cc2)CC1=O)C(=O)c1nccs1
IC50 (Prothrombin): 5000 nM | IC50 (Coagulation factor X [1]): 118 nM

SMILES: N=C(N)NCCC[C@@H](NC(=O)CN1CCN(Cc2ccccc2)CC1=O)C(=O)c1nccs1
IC50 (Prothrombin): 14000 nM | IC50 (Coagulation factor X [1]): 771 nM

SMILES: CS(=O)(=O)c1ccc(S(=O)(=O)N2CCN(CC(=O)NC(CCCN=C(N)N)C(=O)c3nccs3)C(=O)C2)cc1 (centres undefined)
IC50 (Prothrombin): 4000 nM | IC50 (Coagulation factor X [1]): 85 nM

SMILES: N=C(N)NCCCC(NC(=O)CN1CCN(S(=O)(=O)c2ccc(N)cc2)CC1=O)C(=O)c1nccs1 (centres undefined)
IC50 (Prothrombin): 5000 nM | IC50 (Coagulation factor X [1]): 6 nM

SMILES: N=C(N)NCCCC(NC(=O)CN1CCN(S(=O)(=O)c2ccc3ccccc3c2)CC1=O)C(=O)c1nccs1 (centres undefined)
IC50 [2]: > 180000 nM | Ki (Coagulation factor X [5]): 2.7 nM | IC50 [7]: 390 nM | half-life [13]: 15 min | Plasma concentration (Oryctolagus cuniculus [14]): 0.8 µM | 2x APTT [8]: 13.5 µM | IC50 (Prothrombin): 6000 nM | IC50 (Coagulation factor X [1]): 8 nM | 2x PT [9]: 14.5 µM | 2x TG [10]: inactive | IC50 [11]: 1850 nM | IC50 (Plasminogen): 6960 nM | IC50 (Serine protease 1): 39.1 nM | Inhibition (Oryctolagus cuniculus [15]): 0% | k off (Coagulation factor X [16]): 0.132 s⁻¹ | k on (Coagulation factor X [16]): 6.3e+06 M⁻¹ s⁻¹

SMILES: N=C(N)NCCCC(NC(=O)CN1CCN(S(=O)(=O)c2ccc([N+](=O)[O-])cc2)CC1=O)C(=O)c1nccs1 (centres undefined)
IC50 (Prothrombin): 3000 nM | IC50 (Coagulation factor X [1]): 6 nM

SMILES: N=C(N)NCCCC(NC(=O)CN1CCN(S(=O)(=O)c2ccc(NO)cc2)CC1=O)C(=O)c1nccs1 (centres undefined)
IC50 (Prothrombin): 7000 nM | IC50 (Coagulation factor X [1]): 10 nM

SMILES: N=C(N)NCCCC(NC(=O)CN1CCN(S(=O)(=O)c2ccc(C(F)(F)F)cc2)CC1=O)C(=O)c1nccs1 (centres undefined)
IC50 (Prothrombin): 6000 nM | IC50 (Coagulation factor X [1]): 10 nM

SMILES: N=C(N)NCCCC(NC(=O)CN1CCN(S(=O)(=O)/C=C/c2ccccc2)CC1=O)C(=O)c1nccs1 (centres undefined)
IC50 (Prothrombin): 7000 nM | IC50 (Coagulation factor X [1]): 13 nM

SMILES: N=C(N)NCCC[C@@H](NS(=O)(=O)Cc1ccccc1)C(=O)NCC(=O)N[C@H](CCCNC(=N)N)C(=O)c1nccs1
IC50 [2]: 6000 nM | IC50 [7]: 27 nM | half-life [13]: 24 min | Plasma concentration (Oryctolagus cuniculus [14]): 0.07 µM | 2x APTT [8]: 0.5 µM | IC50 (Prothrombin): 10000 nM | 2x PT [9]: 6.8 µM | 2x TG [10]: 0.18 µM | IC50 [11]: 329 nM | IC50 (Plasminogen): 309 nM | IC50 (Serine protease 1): 0.8 nM | Inhibition (Oryctolagus cuniculus [15]): 100% | k on (Coagulation factor X [16]): 6.5e+06 M⁻¹ s⁻¹

SMILES: Cc1c(S(=O)(=O)N2CCN(CC(=O)NC(CCCN=C(N)N)C(=O)c3nccs3)C(=O)C2)sc2ccc(Cl)cc12 (centres undefined)
Plasma concentration (Oryctolagus cuniculus [4]): 1.6 µM | Inhibition (Oryctolagus cuniculus [6]): 0% | IC50 [7]: 9.4 nM | 2x APTT [8]: 15.5 µM | 2x PT [9]: 14.5 µM | 2x TG [10]: 5.46 µM | k_off (Coagulation factor X [12]): inactive | k_on (Coagulation factor X [12]): inactive

Continued, in another order:

IC50 (Prothrombin): 118 nM | IC50 (Coagulation factor X [1]): 2 nM
SMILES: N=C(N)NCCCC(NC(=O)CN1CCN(S(=O)(=O)c2cccc3ccccc23)CC1=O)C(=O)c1nccs1 (centres undefined)

IC50 (Prothrombin): 719 nM | IC50 (Coagulation factor X [1]): 2 nM
SMILES: N=C(N)NCCCC(NC(=O)CN1CCN(S(=O)(=O)c2cccc3nonc23)CC1=O)C(=O)c1nccs1 (centres undefined)

IC50 (Prothrombin): 185 nM | IC50 (Coagulation factor X [1]): 0.62 nM
SMILES: N=C(N)NCCCC(NC(=O)CN1CCN(S(=O)(=O)c2cccc3c(Cl)cccc23)CC1=O)C(=O)c1nccs1 (centres undefined)

IC50 (Prothrombin): 669 nM | IC50 (Coagulation factor X [1]): 69 nM
SMILES: Cc1nsc(C)c1S(=O)(=O)N1CCN(CC(=O)NC(CCCNC(=N)N)C(=O)c2nccs2)C(=O)C1 (centres undefined)

IC50 (Prothrombin): 792 nM | IC50 (Coagulation factor X [1]): 0.89 nM
SMILES: COc1ccc(S(=O)(=O)N2CCN(CC(=O)NC(CCCNC(=N)N)C(=O)c3nccs3)C(=O)C2)cc1 (centres undefined)

IC50 [2]: > 180000 nM | Ki (Coagulation factor X [5]): 1.4 nM | IC50 [7]: 677 nM | half-life [13]: 10 min | IC50 (Prothrombin): 390 nM | IC50 (Coagulation factor X [1]): 4 nM | IC50 [11]: 4010 nM | IC50 (Plasminogen): 12100 nM | IC50 (Serine protease 1): 33 nM | k off (Coagulation factor X [16]): 0.013 s⁻¹ | k on (Coagulation factor X [16]): 2.3e+06 M⁻¹ s⁻¹
SMILES: N=C(N)NCCC[C@@H](NC(=O)CN1CCN(S(=O)(=O)Cc2ccccc2)CC1=O)C(=O)c1nccs1
Inhibition (Oryctolagus cuniculus [17]): 35% | Plasma concentration (Oryctolagus cuniculus [14]): 0.4 µM | 2x APTT [8]: 2.8 µM | 2x PT [9]: 11.7 µM | 2x TG [18]: inactive

IC50 [2]: > 180000 nM | Ki (Coagulation factor X [5]): 4.4 nM | IC50 [7]: 240 nM | half-life [13]: 29 min | IC50 (Prothrombin): 569 nM | IC50 (Coagulation factor X [1]): 2 nM | IC50 [11]: 150 nM | IC50 (Plasminogen): 10 nM | IC50 (Serine protease 1): 2 nM | k off (Coagulation factor X [16]): 0.107 s⁻¹ | k on (Coagulation factor X [16]): 2.9e+06 M⁻¹ s⁻¹
SMILES: N=C(N)NCCCC(NC(=O)CN1CCN(S(=O)(=O)c2cccc3cccnc23)CC1=O)C(=O)c1nccs1 (centres undefined)
Plasma concentration (Oryctolagus cuniculus [14]): 0.4 µM | 2x APTT [8]: 2 µM | 2x PT [9]: 10.4 µM | 2x TG [10]: 2.5 µM | Inhibition (Oryctolagus cuniculus [15]): 0%

IC50 (Prothrombin): 809 nM | IC50 (Coagulation factor X [1]): 0.7 nM
SMILES: N=C(N)NCCCC(NC(=O)CN1CCN(S(=O)(=O)c2ccc(Br)cc2)CC1=O)C(=O)c1nccs1 (centres undefined)
